# Reference: publication PMC9537177, “A VEGFR targeting peptide-drug conjugate (PDC) suppresses tumor angiogenesis in a TACE model for hepatocellular carcinoma therapy” (Cell Death Discovery, 2022)
# Entries after “also recorded” stand apart in the source; their conditions may differ. Square brackets hold non-standard residues; d marks the D form. Peptide text beside a SMILES is read from it. Aib = CC(C)(N)C(=O)O; Ahx = NCCCCCC(=O)O
# Legend:
# HUVEC cells [1] = experiment: Annexin V-FITC/PI cell apoptosis assay, HUVEC; format: cell-based, human; details: 10 μM, 24 h, Annexin V-PI FACS
# Method: The improved proapoptotic activity of QR-KLU was further confirmed by Annexin V-PI staining through FACS. Viable cells, early apoptotic cells, necrotic cells, late apoptotic cells were represented by Q4, Q3, Q2 and Q1 respectively. […] Besides, QR-KLU induced cell apoptosis in a dose-dependent manner. […] The percentage of apoptotic cells in KLU peptide at 20 μM were about 25% in both Huh7 cells and HUVEC cells.
# (§1) The apoptosis assay was performed according to the manufacturer’s instructions using an Annexin V: Fluorescein Isothiocyanate (FITC) Apoptosis Detection Kit I (BD Pharmingen™). Briefly, Huh 7 or HUVEC cells were seeded in a 12-well plate and allowed to grow for 24 h in medium with 10% FBS. Then, the cells were treated with the different peptides in medium with 5% FBS for 24 h’ incubation. The cells were harvested with 0.25% trypsin/EDTA, washed twice with PBS and suspended in 1 × binding buffer. The suspended cells were treated with FITC-labeled Annexin V and propidium iodide (PI) as the protocol indicated and then analyzed by flow cytometry to determine the apoptotic cells. The cells with positive fluorescence intensity signals for both FITC and PI were used for the apoptotic cell count.
# Supplementary Figure S2. Cell apoptosis of HUVEC induced by different peptides. HUVEC cells were treated with PBS, 80μM QR, 20μM KLU, 5μM QR-KLU, 10μM QR-KLU for 24 hours before detection by FACS.
# [2] = tested on: HUVEC cells with high expression of VEGFR; experiment: Cell competitive binding (cell affinity) assay by FACS, HUVEC; format: cell-based, human; details: QR-KLU 0, 2.5, 5, 10, 20 μM pre-incubated 30 min at 37 °C, then 10 μM FAM-QR for 4 h
# Method: (§2) We then performed cell competitive binding assay to evaluate the affinity of the peptide conjugate to endothelial cell HUVEC with high expression of VEGFR [29]. FAM-labeled VEGF125−136 peptide QR was cultured with HUVEC cells for 4 h and then cellular penetration ability was tested by FACS. […] To further confirm our result, we then used HT29 cells to repeat this assay as HT29 cells are reported with low expression of VEGFR [29].
# (§3) Fig. 2 The cell affinity of QR-KLU with different cell lines. Cell penetration of peptide QR-KLU with HUVEC cells (A) and HT29 cells (B). The cells were respectively treated with PBS, 10 μM FAM-QR + 0 μM QR-KLU, 10 μM FAM-QR + 2.5 μM QR-KLU, 10 μM FAM-QR + 5 μM QR-KLU, 10 μM FAM-QR + 10 μM QR-KLU, 10 μM FAM-QR + 20 μM QR-KLU. C The median fluorescence of HUVEC and HT29 cells treated with different peptides as mention in Fig. 2A, B.
# (§4) The affinity ability of peptide QR-KLU to endothelial cells was determined by fluorescence-activated cell sorting (FACS) analysis. Briefly, the HUVEC cells were incubated on a 24-well plate for 24 h in growth medium. Then peptide QR-KLU in medium with different concentrations (0 μM, 2.5 μM, 5 μM, 10 μM, 20 μM) were respectively incubated with HUVEC cells for 30 min at 37 °C. Next, carboxy-fluorescein (FAM)-labelled-QR peptide (10 μM) were added to each well for 4 h at 37 °C. […] FACS was performed and the results were analyzed using FlowJo.
# Huh 7 cells = details: 10 μM, 24 h, Annexin V-PI FACS
# Method: Viable cells, early apoptotic cells, necrotic cells, late apoptotic cells were represented by Q4, Q3, Q2 and Q1 respectively.
# as §1
# [3] = Therapeutic safety in VX2 tumor-bearing rabbits (organ H&E, serum biochemistry)
# Method: Twenty-four VX2 tumor-burdened rabbits were evenly divided into four groups. After fasting for 12 h, the rabbits were anesthetized by intravenous injection of pentobarbital sodium solution (2 wt.%, 30 mg/kg). The rabbit’s right femoral artery was dissected and a 4-F Cobra catheter (Cook, Inc., Bloomington, Indiana) was inserted into the celiac artery, hepatic arteriography was then performed under the guidance of digital subtraction angiography (DSA), and a 2.7-F coaxial microcatheter (Terumo, Tokyo, Japan) was super-selectively inserted into the tumor donor branch subsequently. The emulsion of drugs and lipiodol were slowly injected into the tumor-feeding artery through the above microcatheter at a speed of 0.5 mL/min. […] After obtaining all DSA images, the sheaths and catheters were removed.
# Seven days after treatment, the liver tumors, hearts, lungs, kidneys and spleens were harvested and fixed in 4% phosphate-buffered paraformaldehyde, the specimens were embedded in paraffin blocks and cut into 5‐μm‐thick sections. Following the manufacturer’s guidelines, the sections were stained with haematoxylin and eosin (H&E) for the evaluation of organ toxicity and tumor necrosis, Ki-67 staining and transfer-mediated dUTP nick end labeling (TUNEL) technique were used to detect tumor proliferation and apoptosis, respectively.
# Blood samples were collected before treatment and at 1, 3, 7 days after treatment. The blood samples were stood at room temperature for 30 min, and the serum was obtained by centrifugation (room temperature, 8000 rpm, 10 min) for assessment of alanine aminotransferase (ALT), aspartate aminotransferase (AST), total bilirubin (TBIL) and creatinine (CREA). The assays were performed using the commercially ready-made kits following the manufacturers’ instructions.
# [4] = tested on: HT29 cells with low expression of VEGFR; experiment: Cell competitive binding (cell affinity) assay by FACS, HT29; format: cell-based, human; details: QR-KLU 0-20 μM with 10 μM FAM-QR
# Method: as §2, §3, §4
# VX2 liver tumor = experiment: VX2 rabbit liver tumor model with TAE/TACE: tumor growth, necrosis, apoptosis, proliferation, angiogenesis; format: in vivo, New Zealand white rabbits
# Method: New Zealand white rabbits (2.5-3 kg) were purchased from the Laboratory Animal Center of Tongji Medical College of Huazhong University of Science and Technology (Wuhan, China). All the animal experimental procedures were performed in accordance with the National Institutes of Health Guidelines for the Care and Use of Laboratory Animals and the protocol was approved by the Ethics Committee of Tongji Medical College, Huazhong University of Science and Technology. Blinding was not possible in most animal experiments. The rabbit VX2 liver tumor model was established according to the method reported by Qian K et al.. […] The acquisition parameters of the sequence are as follows: […], TR 2750 ms, TE 65 ms, the field of view 120 mm × 120 mm, Slice thickness 3 mm in the transverse plane, matrix 152 × 152. The multi-vane technique was used to reduce artifacts and improve image quality, acquisition time 3 min […]; […] Seven days after TACE procedure, tumor size was evaluated again by MR scan and the tumor volume was calculated by formula: V = a * b^2/2 (a, long diameter; b, short diameter). And tumor growth rate was calculated by formula: […] Finally, the VX2 rabbits were sacrificed and the tumor tissues were harvested for biochemical analysis and histopathological examination. […] The IHC staining procedures were performed as previously described. Briefly, the sections were blocked in 3% H2O2 for 25 min and then incubated with goat serum for 15 min. Subsequently, the sections were first washed and incubated with anti-VEGF (1:200, Abcam, USA), and anti-CD31 (1:20; Abcam, USA) overnight at 4 °C, and then incubated with second antibody (Abcam, USA) at 37 °C for 50 min. Next, the sections were stained with 3, 3'-diaminobenzidine (DAB, Service bio, Wuhan […] Biotechnology Co., Ltd., China) for 6 min and rinsed and stained in hematoxylin for 30 s. The sections were then dehydrated in gradient alcohol and sealed in neutral resins. VEGF expression was assessed by semiquantitative IHC based on staining intensity and density, the staining intensity was scored as 0 (negative), 1 (weak), 2 (moderate), and 3 (strong), while the staining density was scored on the basis of the percentage of positively stained cells: 0 (0%), 1 (1-25%), 2 (26-50%), 3 (51-75%), and 4 (76-100%). The total VEGF IHC score was calculated by multiplying the intensity score by the density score. Microvessel density (MVD) was calculated according to the method developed by Weidner et al.
# HUVEC cells [5] = experiment: Wound-healing assay of HUVEC cells; format: cell-based, human; details: 10 μM, 24 h
# Method: Wound-healing assay was performed according to the protocols reported by Liang et al.. Briefly, HUVEC cells were plated into 12-well plate and grown to create a confluent monolayer. The monolayer was grazed in a straight line to create a “scratch” with a pipette tip. Markings were created close to the scratch to be used as reference points. Then cells were treated with different peptides for 24 h at 37 °C. Images were collected with a Leica DFC480 camera on a phase-contrast microscope equipped with a 10 × objective at room temperature. The free area of the wound was measured by image software. Supplementary Figure S1. Wound healing assay to detect the cell migration influenced by different peptides.
# [6] = 7 days after treatment, versus NS group
compound,measurement,setting,value
CC(=O)N[C@@H](CCC(N)=O)C(=O)N[C@@H](CCCCN)C(=O)N[C@@H](CCCNC(=N)N)C(=O)N[C@@H](CCCCN)C(=O)N[C@@H](CCCNC(=N)N)C(=O)N[C@@H](CCCCN)C(=O)N[C@@H](CCCCN)C(=O)N[C@@H](CO)C(=O)N[C@@H](CCCNC(=N)N)C(=O)N[C@@H](Cc1ccc(O)cc1)C(=O)N[C@@H](CCCCN)C(=O)N[C@@H](CO)C(=O)NCCCCCC(=O)N[C@@H](CCCCN)C(=O)N[C@@H](CC(C)C)C(=O)NC(C)(C)C(=O)N[C@@H](CCCCN)C(=O)N[C@@H](CC(C)C)C(=O)NC(C)(C)C(=O)N[C@@H](CCCCN)C(=O)N[C@@H](CCCCN)C(=O)N[C@@H](CC(C)C)C(=O)NC(C)(C)C(=O)N[C@@H](CCCCN)C(=O)N[C@@H](CC(C)C)C(=O)NC(C)(C)C(=O)N[C@@H](CCCCN)C(N)=O [QR-KLU] (Ac-QKRKRKKSRYKS[Ahx]KL[Aib]KL[Aib]KKL[Aib]KL[Aib]K-NH2; N-terminus and C-terminus assumed),apoptosis rate in HUVEC cells,HUVEC cells [1],over 40%
same,effect of QR-KLU on cell penetration of FAM-labeled peptide QR in HUVEC,[2],decreased cell penetration ability
same,apoptosis rate in Huh 7 cells,Huh 7 cells,over 60%
same,"H&E staining of hearts, lungs, kidneys and spleens","[3]; 7 days after TACE, 4 mg/kg in lipiodol",no apparent tissue injury
same,"liver and renal toxicity (ALT, AST, TBIL, CREA in serum)","[3]; before and 1, 3, 7 days after treatment, 4 mg/kg in lipiodol via TAE",no significant liver or renal toxicity
same,effect of QR-KLU on cell penetration of FAM-labeled peptide QR in HT29,[4],could not obviously affect cell penetration ability
same,mean tumor volume at 7 days after TAE procedure,"VX2 liver tumor; 0.5 mL lipiodol emulsion into tumor-feeding artery, DOX 2 mg/kg, KLU 4 mg/kg, QR-KLU 4 mg/kg, MR images, 24 rabbits evenly in four groups, mean ± SD",1008.5 ± 370.7 mm^3
same,tumor growth rate (V7/V0 × 100%),"VX2 liver tumor; 7 days after TAE, DOX 2 mg/kg, KLU 4 mg/kg, QR-KLU 4 mg/kg in lipiodol, NS group 276.4%",significantly lower than that of the NS group; also recorded: significantly lower than the other three groups
same,VEGF IHC score in tumor,"VX2 liver tumor; 7 days after embolization, IHC intensity × density score, compared with NS group",significantly reduced the expression of CD31 and VEGF
same,"microvessel density (MVD), CD31 IHC","VX2 liver tumor; 7 days after embolization, mean of three ×200 fields, compared with NS group",reduce the MVD in the tumor
same,mean proportion of apoptotic cells in tumor (TUNEL),VX2 liver tumor; [6],significantly higher than that in NS group; also recorded: highest
same,mean proportion of proliferating cells in tumor (Ki67),VX2 liver tumor; [6],significantly lower than that in NS group; also recorded: lowest
same,mean tumor volume one day before TAE procedure,"VX2 liver tumor; baseline, MR images, V = a*b^2/2, VX2 rabbits, 24 rabbits evenly in four groups, mean ± SD",899.7 ± 394.0 mm^3
same,cell migration of HUVEC (wound epithelial gap),HUVEC cells [5],the wound epithelial gap was unchanged or even bigger
